The structures appear in SMILES notation. Changes are numbered by the printed parent chain. Read-outs that look alike come from different tables or passages of the source.

One experiment concerns type n channels. The conditions noted are these: cited from earlier work.
Experiment [1] addresses T1, type l K+ channel (mouse) (Mus musculus, UniProt P15388).
T1 construct: Native channels; endogenous in cells; host or cells: mouse T cells (CD4-CD8- T cells of autoimmune strains such as MRL-lpr; normal cytotoxic T cells)
T1 sequence (P15388 1-511): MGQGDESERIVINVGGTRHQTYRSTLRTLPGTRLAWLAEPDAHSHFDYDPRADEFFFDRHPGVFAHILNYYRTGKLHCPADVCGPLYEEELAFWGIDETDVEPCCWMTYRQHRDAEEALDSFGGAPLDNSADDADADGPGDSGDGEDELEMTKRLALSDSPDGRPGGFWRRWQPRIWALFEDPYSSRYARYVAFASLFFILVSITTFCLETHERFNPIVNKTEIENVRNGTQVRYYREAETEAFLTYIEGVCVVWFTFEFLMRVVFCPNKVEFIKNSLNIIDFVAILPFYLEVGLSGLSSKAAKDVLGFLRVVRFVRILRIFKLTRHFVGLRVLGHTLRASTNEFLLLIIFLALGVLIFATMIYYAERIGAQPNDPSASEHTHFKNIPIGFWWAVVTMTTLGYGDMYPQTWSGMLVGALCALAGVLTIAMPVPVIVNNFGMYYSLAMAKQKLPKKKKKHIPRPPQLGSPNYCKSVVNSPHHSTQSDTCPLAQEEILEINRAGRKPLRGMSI
The conditions noted are these: cited from earlier work; for effect on type l K+ channels, in words: MRL-lpr mice / mouse lymphocytes.

Experiment [2] has as its target T2, type l K+ channel (human) (Homo sapiens, UniProt P48547).
T2 construct: Native channels; endogenous in cells; host or cells: Louckes human B cell lymphoma line
T2 sequence (P48547 1-511): T1 sequence (P15388 1-511) with V265I
Kind of experiment: Patch-clamp pharmacology of type l K+ channels in human Louckes lymphoma cells. The class given is cell-based. The procedure: For the two-electrode voltage-clamp experiments, cells were bathed in oocyte Ringer solution containing 96mM NaCl, 2 mM KCl, 1.8 mM CaCl2, 1 mM MgCl2, 5 mM N-2-hydroxyethylpiperazine-N'-2-ethanesulfonic acid (HEPES), and adjusted to pH 7.5 with NaOH. The pipette solution was 3 M KCl. Patch-clamp experiments were carried out under identical conditions in oocytes and in T cells, using a mammalian Ringer solution containing 160 mM NaCl, 4.5 mM KCl, 2 mM CaCl2,1 mM MgCl2, 5 mM HEPES, and adjusted to pH 7.4 with NaOH and a total osmolarity of 290-320 mosm/kg. Internal (pipette) solutions contained: 140 mM KF, 2 mM MgCl2, 1 mM CaCl2, 5mM HEPES, 11 mM K2 -ethylene glycol-bis(β-aminoethylether)N,N,N',N'-tetraacetic acid (EGTA). CTX was purchased from Latoxan (IBF-Biotechnics, Inc., Columbia, Md.).
(§1) The patch-clamp amplifier (List L/M-EPC 7, Adams and List Associates, Ltd., Great Neck, N.Y.) was used in the voltage-clamp mode without series resistance compensation. Patchclamp electrodes were pulled from Accu-fill 90 Micropets (Becton, Dickinson & Co., Parsippany, N.J.) in three stages, coated with Sylgard (Dow Corning Corp., Midland, Mich.) and fire-polished to resistances, measured in the bath, of 2-7 M.OMEGA.. In all patch-clamp experiments, the command input of the patch-clamp amplifier was controlled by a PDP 11/73 computer via a digital-analog converter, and membrane currents were recorded at a bandwidth of 2 kHz. The holding potential was adjusted in all experiments to E=-80 mV. Correction for capacitative currents was achieved by analog subtraction.
Type l Channels in a Human Lymphoma Line: The human B cell lymphoma line, Louckes, has been reported to express large numbers of type l K+ channels (Shapiro and DeCoursey, (1988) Biophys. J. 53, 550a). We have confirmed that Louckes cells display a K+ channel with gating kinetics and pharmacological sensitivities indistinguishable from the type l K+ channels of mouse T cells (Table I and II). Because Louckes is a human cell line, it should be possible to compare the Kv3.1 transcripts isolated from these cells with Kv3.1 transcripts isolated from mouse T cells.
A general note: In patch-clamp work, channel activity is measured electrically.

In another experiment the target is rKv3.1 cDNA (Kv4). The conditions noted are these: data from Luneau, et al., 1991; read-out: Blockers, Kd / half-blocking dose; cited from earlier work.
The target in a further experiment is mKv3.1a cDNA (NGK2). The conditions noted are these: data from Yokoyama, et al., 1989, cited from earlier work.
Experiment [3] concerns the target T3, type n K+ channel (mouse) (Mus musculus, UniProt P16390).
T3 construct: Native channels; endogenous in cells; host or cells: mouse T cells
The conditions noted are these: cited from earlier work.

The target of experiment [4] is T1, type l K+ channel (mouse). Description: Patch-clamp pharmacology of type l K+ channels in mouse T cells. The class given is cell-based. The conditions noted are these: for Kd: data from this paper. As for the experimental part:
(§2) A gigohm seal patch-clamp technique was employed [Hamill, et al., Pflugers Arch. […] Cells were separated and stained as described infra. Maximum K^+ conductances (gk) Of CD4^- CD8^- Thy-l.2^+ T cells were determined from the maximum peak K^+ current elicited at +40 mV (holding potential -80 mV), assuming a reversal potential for K^+ of -80 mV. All experiments were done at room temperature (22° to 26° C.). The cells under investigation were bathed in Ringer solution (in mM): 160 NaCl, 4.5 KCl, 2 MgCl2, 1 CaCl2, 2 MgCl2, and 10 K-HEPES (pH 7.4). […] Each point represents gk in one single cell except the ones with the bars that reflect the mean±SD of previously reported data. The data from C3H (n=12), C3H-lpr (n=22), C3H-gld (n=26), and MRL-lpr (n=31) are taken from Grissmer, et al., J. Immunol. […] Three types of voltage-gated K^+ channels (n, l, n') are expressed by murine T cells, which can be distinguished by electrophysiological and pharmacological criteria. DeCoursey, et al., J. Gen.
(§3) K^+ channels were identified on the basis of their inactivation properties, channel closing kinetics, and sensitivity to block by tetraethylammonium (TEA). Typically type n K^+ channels are use-dependent, i.e., show cumulative inactivation by repetitive depolarizing pulses. Use dependence was determined by measuring the decline in the size of the peak K^+ current elicited with one per second repetitive depolarizing pulses of 200 ms duration.
(§4) (5) Electrophysiology: After phenotypic identification by epifluorescence microscopy, single T cells were patch-clamped at room temperature (22° to 26° C).
(§5) Solutions: The cells under investigation were bathed in normal mammalian Ringer solution containing (in mM): 160 NaCl, 4.5 KCl, 2 MgCl2, 1CaCl2, and 5 Na-HEPES (pH 7.4). […] In Ringer solutions containing tetraethylammonium chloride (TEA^+), NaCl was replaced by the appropriate TEA^+ concentrations keeping the osmolarity constant. The bath solution could be changed during recordings by bath perfusion.

Experiment [5] concerns the target T4, type n K+ channel (human) (Homo sapiens, UniProt P22001).
T4 construct: Native channels; endogenous in cells; host or cells: human T cells
The conditions noted are these: data from DeCoursey, et al., 1984, Sands, 1989, read-out: Blockers, Kd / half-blocking dose; cited from earlier work.

In a further experiment the target is T5, mKv3.1b K+ channels (Mus musculus, UniProt P15388).
T5 construct: expressed in transfected cells; host or cells: Xenopus oocytes injected with mKv3.1b mRNA
T5 sequence (P15388 1-585 isoform P15388-3): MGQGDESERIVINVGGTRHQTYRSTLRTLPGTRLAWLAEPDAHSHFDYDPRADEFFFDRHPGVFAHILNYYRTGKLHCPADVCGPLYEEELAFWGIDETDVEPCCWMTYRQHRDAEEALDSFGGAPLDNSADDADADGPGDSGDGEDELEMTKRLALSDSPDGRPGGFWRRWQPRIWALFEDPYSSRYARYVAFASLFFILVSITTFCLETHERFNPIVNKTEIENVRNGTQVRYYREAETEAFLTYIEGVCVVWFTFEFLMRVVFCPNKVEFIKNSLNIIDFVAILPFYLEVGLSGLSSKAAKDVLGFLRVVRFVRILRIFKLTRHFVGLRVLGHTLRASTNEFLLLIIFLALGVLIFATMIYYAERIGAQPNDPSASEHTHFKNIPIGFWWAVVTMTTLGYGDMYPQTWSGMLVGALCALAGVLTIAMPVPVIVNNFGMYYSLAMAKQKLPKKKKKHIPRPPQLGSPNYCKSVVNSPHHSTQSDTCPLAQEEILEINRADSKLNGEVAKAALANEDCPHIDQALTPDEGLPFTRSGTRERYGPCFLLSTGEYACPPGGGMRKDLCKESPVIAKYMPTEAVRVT
Description: cell-based. The class given is cell-based. The procedure: For transcription, the plasmid was linearized by digestion with SacI in the polylinker.
All experiments were done at room temperature (22°-26°C.).
(§6) The pipette solution was 3 M KCl. […] CTX was purchased from Latoxan (IBF-Biotechnics, Inc., Columbia, Md.).
as §1
Mouse Kv3.1b Expression in Oocytes: Xenopus oocytes express a high density of voltage-activated K+ channels following injection of mKv3.1b mRNA. […] Single channel recordings were done on outside-out patches from these oocytes, whereas gating and inactivation kinetics and pharmacological sensitivities were determined using outside-out patches of oocyte membrane injected with a 10 times more concentrated mRNA solution (50 nl of 0.1 μg/μ^1 mRNA).

Experiment [6] deals with T3, type n K+ channel (mouse). Description: Patch-clamp pharmacology of type n K+ channels in mouse T cells. Format: cell-based. As for the experimental part: as §2, §3, §4, §5
For experiment [7], the target named is T4, type n K+ channel (human). Description: Patch-clamp pharmacology of type n K+ channels in human T cells. Format: cell-based. The conditions noted are these: for Kd: data from this paper.
From the text: as §6, §1

Where [8] appears, read: Louckes cells, read-out: Blockers, Kd / half-blocking dose.
The mark [9] stands for this setting: data from DeCoursey, et al., 1987, read-out: Blockers, Kd / half-blocking dose.
[10] abbreviates: 20 mM Co^2+, data from DeCoursey, et al., 1987.
The mark [11] stands for this setting: 20 mM Co^2+, data from this paper.
[12] abbreviates: first value, read-out: apparent dissociation constant Kd, from reduction of the integral under the current trace.
The mark [13] stands for this setting: second value, read-out: apparent dissociation constant Kd, from reduction of the peak current amplitude.

T3 sequence (P16390 whole entry): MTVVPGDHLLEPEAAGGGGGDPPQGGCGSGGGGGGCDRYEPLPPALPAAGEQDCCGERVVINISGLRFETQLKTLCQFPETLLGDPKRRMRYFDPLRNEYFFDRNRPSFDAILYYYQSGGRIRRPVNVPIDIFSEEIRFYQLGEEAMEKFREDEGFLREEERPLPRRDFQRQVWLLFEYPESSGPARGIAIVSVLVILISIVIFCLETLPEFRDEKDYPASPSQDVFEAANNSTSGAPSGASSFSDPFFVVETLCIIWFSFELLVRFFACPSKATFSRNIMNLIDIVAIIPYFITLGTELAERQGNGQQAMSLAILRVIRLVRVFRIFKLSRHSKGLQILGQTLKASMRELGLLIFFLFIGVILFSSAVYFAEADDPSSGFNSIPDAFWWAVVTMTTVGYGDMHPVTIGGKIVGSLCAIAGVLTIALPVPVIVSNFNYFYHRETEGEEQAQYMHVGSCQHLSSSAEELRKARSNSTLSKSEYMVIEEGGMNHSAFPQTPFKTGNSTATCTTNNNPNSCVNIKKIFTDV
T4 sequence (P22001 whole entry): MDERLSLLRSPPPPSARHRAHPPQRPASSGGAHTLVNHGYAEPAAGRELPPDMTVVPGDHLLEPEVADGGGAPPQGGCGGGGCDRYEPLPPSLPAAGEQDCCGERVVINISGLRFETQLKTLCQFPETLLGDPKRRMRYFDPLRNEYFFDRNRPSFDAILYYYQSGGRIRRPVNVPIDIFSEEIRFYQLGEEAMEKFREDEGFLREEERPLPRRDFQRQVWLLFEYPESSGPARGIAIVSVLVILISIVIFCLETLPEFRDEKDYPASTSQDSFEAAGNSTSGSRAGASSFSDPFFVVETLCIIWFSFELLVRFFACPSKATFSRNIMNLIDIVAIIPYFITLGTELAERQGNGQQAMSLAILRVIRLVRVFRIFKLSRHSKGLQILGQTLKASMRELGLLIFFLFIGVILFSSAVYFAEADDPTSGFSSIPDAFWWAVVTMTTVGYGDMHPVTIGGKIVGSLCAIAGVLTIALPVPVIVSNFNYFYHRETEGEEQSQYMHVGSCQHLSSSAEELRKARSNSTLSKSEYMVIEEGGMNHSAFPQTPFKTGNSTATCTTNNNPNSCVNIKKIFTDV

On to `[La+3]` [La3+], for which the “effect on type n channels, in words” value with type n channels is on record as “strongly blocked”. Besides, the “effect on type l K+ channels, in words” value in experiment [1] is “strongly shift the voltage dependence of activation to more depolarized potentials, with minimal blocking”.

For `Nc1ccncc1` [4-AP, 4-aminopyridine], the Kd was less than 100 µM in experiment [2] (setting [8]); 300 µM on rKv3.1 cDNA (Kv4); 600 µM on mKv3.1a cDNA (NGK2) (read-out: Blockers, Kd / half-blocking dose).

`CC[N+](CC)(CC)CC` [TEA, tetraethylammonium]: the Kd in experiment [2] (setting [8]) is 120 µM; in [3] (setting [9]), 10000 to 13000 µM; in experiment [3] (type n channels of murine T cells, read-out: KD of block by TEA, identification criterion), 8000 µM; in experiment [1] (setting [9]), 80 µM; in experiment [1] (type l channels of murine T cells, read-out: KD / half-blocking dose of block by TEA, identification criterion), 100 µM; in experiment [5] it was 8000 µM. Moreover, the Kd on mKv3.1b K+ channels (outside-out oocyte patch, pulses to +40 mV from -80 mV, read-out: Blockers, Kd / half-blocking dose) was determined as 150 µM. Further, the IC50 in experiment [2] (human Louckes lymphoma cells, read-out: half-blocking dose) is 100 µM; in experiment [4], 100 µM; in experiment [6] it was 10000 µM.

Turning to `[Co+2]` [Co^2+], the “Effect of 20 mM Co^2+: block gK(Co)/gK” value in experiment [2] (20 mM Co^2+) is on record as 0.76; in [1] (setting [10]) it was 0.9; on mKv3.1b K+ channels (20 mM Co^2+), 0.75; in experiment [6] (setting [11]), 0.27. Besides, the “Effect of 20 mM Co^2+: shift ΔEn” value was 30 mV in experiment [2] (20 mM Co^2+), 36 mV in [1] (setting [10]), 30 mV on mKv3.1b K+ channels (20 mM Co^2+) and 40 mV in experiment [6] (setting [11]). Further, the “effect on type n channels, in words” value in the experiment with type n channels is given as “strongly blocked”. In addition, the “effect on type l K+ channels, in words” value in [1] is reported as “strongly shift the voltage dependence of activation to more depolarized potentials, with minimal blocking”. Moreover, the “Effect of Co^2+: block gK(Co)/gK” value in experiment [7] (10 mM Co^2+ (*)) is on record as 0.2. In addition, the “Effect of Co^2+: shift ΔEn” value in experiment [7] (10 mM Co^2+ (*)) is reported as 28 mV.

On to `C=C[C@H]1C[N@@]2CC[C@H]1C[C@H]2[C@H](O)c1ccnc2ccc(OC)cc12` [quinine], for which the Kd in experiment [2] (setting [12]) stood at 10 µM; in [2] (setting [13]), 20 µM; in experiment [4] (setting [12]) it was 10 µM; in experiment [4] (setting [13]), 19 µM; in [7] (setting [12]), 13 µM; in experiment [7] (setting [13]), 24 µM. Also, the Kd is 4 µM on mKv3.1b K+ channels (200 ms steps from -80 mV to 40 mV, first value, read-out: apparent dissociation constant Kd, from reduction of the integral under the current trace); 20 µM on mKv3.1b K+ channels (setting [13]); 1000 µM at mKv3.1a cDNA (NGK2) (read-out: Blockers, quinine). Besides, the “effect on mKv3.1b K+ currents, in words” value on mKv3.1b K+ channels (oocytes) was “increased the apparent rate of mKv3.1b K+ current inactivation, and produced "use-dependent" block”.

(Values after US5397702A, “Assay for and treatment of autoimmune diseases” (priority 1990, dated 1995).)
